# In article PMC9953701 (Biomedicines, 2023):
# Like-named read-outs stand apart in the source and are kept apart here. No end group written: not given here.
# Key:
# [1] = test system: Bacillus subtilis CCUG 163BT; assay type: cell-based
# Description: (§1) The three bacterial strains—Escherichia coli ATCC 25922, Pseudomonas aeruginosa ATCC 27853, and Staphylococcus aureus ATCC 29213—as well as the fungal strain Candida albicans ATCC 90028 were provided by the Department of Clinical Bacteriology, Lund University Hospital. Bacillus subtilis CCUG 163B^T and Bacillus cereus CCUG 7414^T were obtained from the Department of Molecular Sciences, Swedish University of Agricultural Sciences.
# (§2) Antimicrobial activities of the peptides were evaluated using the two-step microdilution assay, which is designed for testing AMPs without activity-inhibiting components. Briefly, bacteria were grown to the mid-logarithmic phase at 37 °C in 3% (w/v) tryptic soy broth (TSB) (Merck KGaA, Darmstadt, Germany). The microbial culture was washed twice by centrifugation and resuspension in 10 mM Tris buffer (pH 7.4 at 37 °C, adjusted by HCl). The microbial suspension was quantified by OD600, diluted, and transferred to 96-well untreated polystyrene microplates prepared with 2-fold serial dilutions of the peptides using 50,000 bacteria per well (all dilutions in Tris buffer). These were incubated for 5 h at 37 °C, after which 5 µL of 20% (w/v) TSB was added to each well and the microplates were re-incubated for an additional 6–12 h (depending on the growth rate of each organism). All MICs presented are the medians from triplicate experiments performed independently.
# [2] = test system: Bacillus cereus CCUG 7414T; assay type: cell-based
# From the text: as §1
# (§3) The standard broth microdilution assay was utilized to assess the MIC of designed peptides according to the guidelines of the Clinical and Laboratory Standards Institute (CLSI). Briefly, bacteria were grown in unbuffered Mueller–Hinton Broth (MHB, VWR International, Leuven, Belgium) as well as buffered (containing 50 mM NaHCO3) medium to the mid-logarithmic phase and were quantified by OD600. The bacterial suspension was diluted in the same medium to reach a final density of 1 × 10^6 colony-forming unit per milliliter (CFU/mL). A volume of 50 µL of the bacterial suspension was added to 96-well plates containing 50 µL of MHB in the absence (viability control) or the presence of the peptides at different concentrations (0.625–80 µM). […] MIC values were derived from 3 sets of independent experiments with different bacterial cultures.
# [3] = test system: Bacillus subtilis CCUG 163BT; assay type: cell-based; remark: listed apart in the source
# From the text: as §1, §3
# [4] = test system: human red blood cells (RBCs); assay: Hemolysis assay; assay type: cell-based; settings: human RBCs 0.25% in PBS pH 7.4, 80 μM peptide (highest test concentration), 1 h, 37 °C, absorbance 405 nm, relative to 1% Triton X-100
# Description: The hemolytic assay was conducted by preparing a stock solution of 320 μM peptides in MilliQ water and serially diluted in PBS to give 100 μL test solutions in a 96-well U-bottom microtiter plate (Nunc). Human-type RBCs (red blood cells) were collected from the donor, washed with PBS (pH 7.4) three times, and centrifuged at 1500× g for 60 s. A pellet of RBCs was resuspended to 0.25% (v/v) solution in PBS (pH 7.4). A 100 μL 0.25% suspension of washed RBCs in PBS was dispensed into each well containing serially diluted peptide solutions and incubated at 37 °C for 1 h. The 96-well plate was centrifuged at 150× g for 5 min and aliquots of 100 μL were transferred to a 96-well U-bottomed microtiter plate (Falcon) and the absorbance was measured at 405 nm with an automatic Multiskan Ascent plate reader (Labsystems). The amount of hemolysis was calculated as the percentage of maximum lysis (1% Triton X-100 control) after adjusting for minimum lysis (PBS control).
# [5] = biological target: T1, aureolysin from S. aureus (Staphylococcus aureus, UniProt P81177); assay: Stability in the presence of the protease aureolysin; assay type: in vitro ADME; settings: peptide:enzyme 200:1, 37 °C, RP-HPLC-MS
# T1 construct: purchased
# Description: Peptide stability was also assayed in commercially available Gram-positive, S. aureus protease, aureolysin. […] All the samples were then incubated at 37 °C at different incubation times. The reaction was quenched by acidifying with 5 µL of 0.1% formic acid. The samples were analyzed on MS coupled to RP-HPLC.
# [6] = test system: Bacillus cereus CCUG 7414T; assay type: cell-based; settings: B. cereus; TSB, Tryptic Soy broth (rich media, unbuffered)
# [7] = test system: Bacillus subtilis CCUG 163BT; assay type: cell-based; settings: B. subtilis; TSB, Tryptic Soy broth (rich media, unbuffered)
# [8] = cited from earlier work
# Description: One of the major limitations of AMPs for clinical use is their inactivation by both endogenous human proteases and proteases secreted from invading microbes. From our previous studies, it was evident that KR-12 and truncated analogs degrade within 10 min in diluted human serum. More recently, we have shown that the KR-12 cyclic dimer peptides were stable for up to 6 h in diluted human serum but the recovery of LL-37 was very low during the precipitation step of the assay, either due to binding of LL-37 with serum components or rapid degradation. We also compared the stability pro ...
# [9] = test system: Salmonella enterica serovar Typhimurium DA6192 wild type and LL-37-resistant mutants (waaY, phoP); assay: MIC against LL-37-resistant strains in buffer conditions; assay type: cell-based; parameters: unit not given here; settings: 20 mM sodium phosphate buffer with 0.1% TSB, 16 to 20 h, 37 °C
# Description: (§4) The LL-37 resistant mutants (DA22427 and DA23307) used in this study were derived from Salmonella enterica serovar Typhimurium DA6192, wild-type and cyclotides-resistant mutants (DA54114 and DA57107) were derived from E. coli MG1655 (wild type) and were kindly provided by Department of Medical Biochemistry and Microbiology, Uppsala University.
# (§5) MIC measurements were performed in 20 mM sodium phosphate buffer (PBS), supplemented with 0.1% TSB in 96-well plates (round bottom, Nunc A/S, Roskilde, Denmark) in a total volume of 100 µL. The overnight cultures were diluted 5 × 10^5 CFU/mL in the same medium and 90 µL was transferred into the plates containing 10 µL of 2-fold diluted peptides. […] At least two independent experiments were performed with two technical replicates. In cyclotides, resistant mutant average MIC was reported.
# [10] = test system: E. coli MG1655 wild type and cyclotides-resistant mutants; assay: MIC against cyclotide-resistant strains in buffer conditions; assay type: cell-based, Escherichia coli; parameters: unit not given here
# Description: as §4, §5
# [11] = test system: Escherichia coli ATCC 25922; assay type: cell-based; settings: ATCC 25922, 24 h
# From the text: as §1, §3
# [12] = test system: Pseudomonas aeruginosa ATCC 27853; assay type: cell-based; settings: ATCC 27853, 24 h
# From the text: as §1, §3
# [13] = test system: Bacillus cereus CCUG 7414T; assay type: cell-based; settings: CCUG 7414, 5 h
# Description: as §1, §2
# [14] = test system: aureolysin; assay: commercially available Gram-positive, S. aureus protease, aureolysin; settings: 37 °C, up to 24 h
# [15] = S. typhimurium phoP LL-37-resistant mutant
# [16] = S. typhimurium waaY LL-37-resistant mutant
# [17] = E. coli DA54114 cyclotide-resistant mutant, sodium phosphate buffer with 0.1% TSB, average MIC
# [18] = E. coli DA57107 cyclotide-resistant mutant, sodium phosphate buffer with 0.1% TSB, average MIC
# [19] = E. coli WT (MG1655), 20 mM sodium phosphate buffer with 0.1% TSB, 16 to 20 h, 37 °C
# T1 sequence (P81177 209-509): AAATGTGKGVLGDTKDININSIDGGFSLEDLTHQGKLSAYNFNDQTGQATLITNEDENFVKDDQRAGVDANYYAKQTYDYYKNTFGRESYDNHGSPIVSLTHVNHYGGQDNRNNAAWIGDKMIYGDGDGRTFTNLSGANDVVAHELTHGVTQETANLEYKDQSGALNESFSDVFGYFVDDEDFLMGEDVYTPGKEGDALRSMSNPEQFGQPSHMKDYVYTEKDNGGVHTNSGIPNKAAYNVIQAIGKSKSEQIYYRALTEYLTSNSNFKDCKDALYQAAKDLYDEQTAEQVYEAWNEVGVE
Compound,MIC ([9]; S. typhimurium WT (DA6192)),"MIC [9, 15]","MIC [9, 16]","MIC [10, 17]","MIC [10, 18]","MIC [10, 19]","MIC ([1]; CCUG 163, 5 h)","MIC ([2]; CCUG 7414, 24 h)","MIC ([3]; CCUG 163, 24 h)",MIC [11],MIC [12],other results
CC[C@H](C)[C@H](NC(=O)[C@H](CCCCN)NC(=O)[C@H](CCC(=O)O)NC(=O)[C@H](CCCCN)NC(=O)[C@H](CO)NC(=O)[C@H](CCCCN)NC(=O)[C@H](CCCNC(=N)N)NC(=O)[C@H](Cc1ccccc1)NC(=O)[C@H](Cc1ccccc1)NC(=O)[C@H](CC(=O)O)NC(=O)CNC(=O)[C@H](CC(C)C)NC(=O)[C@@H](N)CC(C)C)C(=O)NCC(=O)N[C@@H](CCCCN)C(=O)N[C@@H](CCC(=O)O)C(=O)N[C@@H](Cc1ccccc1)C(=O)N[C@@H](CCCCN)C(=O)N[C@@H](CCCNC(=N)N)C(=O)N[C@H](C(=O)N[C@H](C(=O)N[C@@H](CCC(N)=O)C(=O)N[C@@H](CCCNC(=N)N)C(=O)N[C@H](C(=O)N[C@@H](CCCCN)C(=O)N[C@@H](CC(=O)O)C(=O)N[C@@H](Cc1ccccc1)C(=O)N[C@@H](CC(C)C)C(=O)N[C@@H](CCCNC(=N)N)C(=O)N[C@@H](CC(N)=O)C(=O)N[C@@H](CC(C)C)C(=O)N[C@H](C(=O)N1CCC[C@H]1C(=O)N[C@@H](CCCNC(=N)N)C(=O)N[C@H](C(=O)N[C@@H](CCC(=O)O)C(=O)N[C@@H](CO)C(=O)O)[C@@H](C)O)C(C)C)[C@@H](C)CC)C(C)C)[C@@H](C)CC [LL-37],–,–,–,–,–,–,–,–,–,–,–,"MIC ([1]; B. subtilis, Control: two-step microdilution assay in Tris buffer 10 mM without salts): 1.25 µM; MIC ([2]; B. cereus, MHB, Muller-Hinton broth (rich media, unbuffered)): > 80 µM; MIC ([3]; B. subtilis, MHB, Muller-Hinton broth (rich media, unbuffered)): > 80 µM; hemolysis [4]: 19–23%; time to hydrolysis of the Leu31-Val32 peptide bond by aureolysin [5]: ≤ 5 min; MIC [6]: > 80 µM; MIC [7]: > 80 µM; recovery during the precipitation step of the serum stability assay ([8]; diluted human serum): very low"
"KRIVKRIKAFLR [KR-12 (Q5K,D9A)]",10,10,10,1,1,1,1.25 µM,> 80 µM,> 80 µM,10 µM,10 µM,–
KRIVQRIKDFLR [KR-12],20,20,20,1,1,1,5 µM,> 80 µM,> 80 µM,> 20 µM,>20 µM,MIC [13]: 2.5 µM; time within which the peptide degrades in diluted human serum [8]: ≤ 10 min
Kalata B7,–,–,–,–,–,–,–,–,–,–,–,time for which the peptide was stable in aureolysin (stable for up to) [5]: ≥ 24 h
LLGDFFRKSKEKIGKEFKRIVQRIKDFLRNLVPRTES,–,–,–,–,–,–,–,–,–,–,–,"cleaved bond [14]: Leu31-Val32, first_seen, within the first 5 min"
